ChEMBL document CHEMBL5316291 (J Med Chem, 2023)

Columns and labels:
[1] = target: T1, Protein mono-ADP-ribosyltransferase TIPARP (Homo sapiens) (UniProt Q7Z3E1); assay: Inhibition of human recombinant N-terminal FLAG tagged PARP7 (400 to 657 end residues) at 100 nM incubated for 1 hr by ELISA assay relative to control
T1 sequence (whole entry): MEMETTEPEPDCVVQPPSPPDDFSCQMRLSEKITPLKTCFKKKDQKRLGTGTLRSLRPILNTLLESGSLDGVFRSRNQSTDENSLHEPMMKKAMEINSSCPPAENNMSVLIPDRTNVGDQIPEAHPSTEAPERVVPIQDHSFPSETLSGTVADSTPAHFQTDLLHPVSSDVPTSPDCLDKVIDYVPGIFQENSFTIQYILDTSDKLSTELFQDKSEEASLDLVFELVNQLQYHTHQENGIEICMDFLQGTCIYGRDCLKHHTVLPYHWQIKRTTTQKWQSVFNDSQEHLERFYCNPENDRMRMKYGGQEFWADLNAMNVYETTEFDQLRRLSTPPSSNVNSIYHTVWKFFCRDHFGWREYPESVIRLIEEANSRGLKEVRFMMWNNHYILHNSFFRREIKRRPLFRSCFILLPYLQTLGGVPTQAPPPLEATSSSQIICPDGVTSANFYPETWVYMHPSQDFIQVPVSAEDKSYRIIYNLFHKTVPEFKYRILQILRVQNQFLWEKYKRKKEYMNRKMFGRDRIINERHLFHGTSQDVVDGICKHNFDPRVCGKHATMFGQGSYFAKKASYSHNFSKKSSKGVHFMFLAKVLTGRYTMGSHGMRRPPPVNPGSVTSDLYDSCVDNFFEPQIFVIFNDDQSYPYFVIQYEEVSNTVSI

[2] = target: Poly [ADP-ribose] polymerase 1 (Homo sapiens, UniProt P09874); assay: Inhibition of human recombinant N-terminal GST-tagged PARP1 (2 to 1014 end residues) incubated for 1 hr by ELISA assay
[3] = target: T2, Protein mono-ADP-ribosyltransferase TIPARP (Homo sapiens, UniProt Q7Z3E1); assay: Inhibition of human recombinant N-terminal FLAG tagged PARP7 (400 to 657 end residues) incubated for 1 hr by ELISA assay
T2 sequence (Q7Z3E1 whole entry): T1 sequence (whole entry)

[4] = Half life in ICR mouse at 1 mg/kg, iv measured upto 24 hrs by LC-MS/MS analysis; assay type: ADME, organism-based; conditions: in vivo
[5] = Half life in ICR mouse at 10 mg/kg, po measured upto 24 hrs by LC-MS/MS analysis; assay type: ADME, organism-based; conditions: in vivo
[6] = Tmax in ICR mouse at 1 mg/kg, iv measured upto 24 hrs by LC-MS/MS analysis; assay type: ADME, organism-based; conditions: in vivo
[7] = Tmax in ICR mouse at 10 mg/kg, po measured upto 24 hrs by LC-MS/MS analysis; assay type: ADME, organism-based; conditions: in vivo
[8] = Initial plasma concentration in ICR mouse at 1 mg/kg, iv measured upto 24 hrs by LC-MS/MS analysis; assay type: ADME, organism-based
[9] = AUC(0 to infinity) in ICR mouse at 1 mg/kg, iv measured upto 24 hrs by LC-MS/MS analysis; assay type: ADME, organism-based; parameters: time < 24 hrs, dose 1 mg/kg, route iv; conditions: in vivo
[10] = AUC(0 to infinity) in ICR mouse at 10 mg/kg, po measured upto 24 hrs by LC-MS/MS analysis; assay type: ADME, organism-based; parameters: dose 10 mg/kg, time < 24 hrs, route po; conditions: in vivo
[11] = Apparent volume of distribution in ICR mouse at 1 mg/kg, iv measured upto 24 hrs by LC-MS/MS analysis; assay type: ADME, organism-based; conditions: in vivo, read-out: Vz
[12] = Apparent volume of distribution in ICR mouse at 10 mg/kg, po measured upto 24 hrs by LC-MS/MS analysis; assay type: ADME, organism-based; conditions: in vivo
[13] = Clearance in ICR mouse at 1 mg/kg, iv measured upto 24 hrs by LC-MS/MS analysis; assay type: ADME, organism-based; conditions: in vivo
[14] = Clearance in ICR mouse at 10 mg/kg, po measured upto 24 hrs by LC-MS/MS analysis; assay type: ADME, organism-based; conditions: in vivo
[15] = MRT(0 to infinity) in ICR mouse at 1 mg/kg, iv measured upto 24 hrs by LC-MS/MS analysis; assay type: ADME, organism-based; conditions: in vivo
[16] = MRT(0 to infinity) in ICR mouse at 10 mg/kg, po measured upto 24 hrs by LC-MS/MS analysis; assay type: ADME, organism-based; conditions: in vivo
[17] = Oral bioavailability in ICR mouse at 10 mg/kg measured upto 24 hrs by LC-MS/MS analysis; assay type: ADME, organism-based; conditions: in vivo
[18] = Cytotoxicity against mouse AML12 cells assessed as inhibition of cell growth measured after 6 days by MTT assay; assay type: toxicity, cell-based
CT26 [19] = assay: Antitumor activity against mouse CT26 cells xenografted in BALB/c mouse assessed as tumor growth inhibition at 100 mg/kg, po bid measured for 14 days; assay type: functional; conditions: CT26, 336 h, time 14 day, read-out: TGI
[20] = Toxicity in BALB/c mouse implanted with mouse CT26 cells assessed as lung damage at 100 mg/kg, po measured for 14 days by hematoxylin and eosin staining based fluorescence microscopic analysis; assay type: organism-based; conditions: in vivo, 336 h, time 14 day
[21] = Toxicity in BALB/c mouse implanted with mouse CT26 cells assessed as liver damage at 100 mg/kg, po measured for 14 days by hematoxylin and eosin staining based fluorescence microscopic analysis; assay type: organism-based; conditions: in vivo, 336 h, time 14 day
[22] = Toxicity in BALB/c mouse implanted with mouse CT26 cells assessed as kidney damage at 100 mg/kg, po measured for 14 days by hematoxylin and eosin staining based fluorescence microscopic analysis; assay type: organism-based; conditions: in vivo, 336 h, time 14 day
[23] = Toxicity in BALB/c mouse implanted with mouse CT26 cells assessed as spleen damage at 100 mg/kg, po measured for 14 days by hematoxylin and eosin staining based fluorescence microscopic analysis; assay type: organism-based; conditions: in vivo, 336 h, time 14 day
CT26 [24] = assay: Antitumor activity against mouse CT26 cells implanted in BALB/c mouse assessed as increase in infiltration of CD3 positive CD4 positive T lymphocytes in tumors at 100 mg/kg, po measured after 14 days by flow cytometry (reference value: 7.95%); assay type: functional; conditions: time 14 day
CT26 [25] = assay: Antitumor activity against mouse CT26 cells implanted in BALB/c mouse assessed as increase in infiltration of CD4 positive CD8 positive T lymphocytes in tumors at 100 mg/kg, po measured after 14 days by flow cytometry (reference value: 6.67%); assay type: functional; conditions: time 14 day

Sequence of Poly [ADP-ribose] polymerase 1 (P09874 whole entry): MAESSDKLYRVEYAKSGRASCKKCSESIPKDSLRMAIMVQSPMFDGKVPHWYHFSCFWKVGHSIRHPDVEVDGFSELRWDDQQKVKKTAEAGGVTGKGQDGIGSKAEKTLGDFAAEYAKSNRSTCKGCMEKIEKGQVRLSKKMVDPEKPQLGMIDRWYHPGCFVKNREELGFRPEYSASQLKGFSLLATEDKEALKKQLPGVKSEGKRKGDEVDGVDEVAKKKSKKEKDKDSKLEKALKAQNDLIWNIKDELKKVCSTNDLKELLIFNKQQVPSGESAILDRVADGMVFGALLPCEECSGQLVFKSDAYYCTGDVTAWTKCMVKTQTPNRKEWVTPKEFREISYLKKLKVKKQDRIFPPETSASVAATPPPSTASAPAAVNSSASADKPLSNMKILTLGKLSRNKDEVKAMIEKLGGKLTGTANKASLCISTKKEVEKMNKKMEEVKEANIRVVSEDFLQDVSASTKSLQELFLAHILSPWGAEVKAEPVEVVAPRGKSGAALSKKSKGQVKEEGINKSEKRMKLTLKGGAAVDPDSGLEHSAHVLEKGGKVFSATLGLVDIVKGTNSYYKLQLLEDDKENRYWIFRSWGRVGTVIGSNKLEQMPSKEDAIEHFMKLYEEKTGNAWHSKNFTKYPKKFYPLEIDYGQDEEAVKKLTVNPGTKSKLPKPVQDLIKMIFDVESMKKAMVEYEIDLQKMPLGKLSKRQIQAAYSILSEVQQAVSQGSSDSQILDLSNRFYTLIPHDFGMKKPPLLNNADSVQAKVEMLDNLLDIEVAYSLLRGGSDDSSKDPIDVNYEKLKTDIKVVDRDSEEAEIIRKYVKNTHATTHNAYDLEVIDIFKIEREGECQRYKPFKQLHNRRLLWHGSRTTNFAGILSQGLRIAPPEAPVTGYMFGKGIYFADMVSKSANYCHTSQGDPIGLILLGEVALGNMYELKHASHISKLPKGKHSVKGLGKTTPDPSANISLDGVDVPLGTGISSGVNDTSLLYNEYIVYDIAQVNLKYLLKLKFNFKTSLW

## C[C@@H](CN1CCC(C(=O)N2CCN(c3ncc(C(F)(F)F)cn3)CC2)C1)Nc1cn[nH]c(=O)c1C(F)(F)F (some centres undefined)
[1]
  inhibition: 44.9%
[2]
  IC50: 1130 nM

## C[C@@H](CN1CC(C(=O)N2C3CC2CN(c2ncc(C(F)(F)F)cn2)C3)C1)Nc1cn[nH]c(=O)c1C(F)(F)F
[1]
  inhibition: 55.5%
[3]
  IC50: 116 nM

## C[C@@H](CN1CCC(C(=O)N2CCN(c3ncc(C(F)(F)F)cn3)CC2)CC1)Nc1cn[nH]c(=O)c1C(F)(F)F
[1]
  inhibition: 33.6%
[2]
  IC50: > 5000 nM

## O=C(C1CN(CC2(Nc3cn[nH]c(=O)c3C(F)(F)F)CC2)C1)N1CCN(c2ncc(C(F)(F)F)cn2)CC1
[1]
  inhibition: 39.6%

## C[C@@H](CN1CC(C(=O)N2CCN(c3ncc(S(C)(=O)=O)cn3)CC2)C1)Nc1cn[nH]c(=O)c1C(F)(F)F
[1]
  inhibition: 95%
[3]
  IC50: 29.2 nM

## C[C@@H](CN1CC(C(=O)N2CCN(c3ncc(C#N)cn3)CC2)C1)Nc1cn[nH]c(=O)c1C(F)(F)F
[1]
  inhibition: 71.5%
[3]
  IC50: 34.5 nM

## C[C@@H](CN1CC(C(=O)NC2CN(c3ncc(C(F)(F)F)cn3)C2)C1)Nc1cn[nH]c(=O)c1C(F)(F)F
[1]
  inhibition: 51%

## COc1cnc(N2CCN(C(=O)C3CN(C[C@H](C)Nc4cn[nH]c(=O)c4C(F)(F)F)C3)CC2)nc1
[1]
  inhibition: 56%

## CC1CN(c2ncc(C(F)(F)F)cn2)CC(C)N1C(=O)C1CN(C[C@H](C)Nc2cn[nH]c(=O)c2C(F)(F)F)C1 (some centres undefined)
[1]
  inhibition: 77%
[3]
  IC50: 110 nM

## C[C@@H](CN1CC(C(=O)N2CCN(c3ccc4c(c3)OC(F)(F)O4)CC2)C1)Nc1cn[nH]c(=O)c1C(F)(F)F
[1]
  inhibition: 90%
[3]
  IC50: 19.4 nM

## C[C@@H](CN1CC(C(=O)N2CCN(c3ncc(-c4ccc(C(F)(F)F)cc4)cn3)CC2)C1)Nc1cn[nH]c(=O)c1C(F)(F)F
[1]
  inhibition: 40%

## C[C@@H](CN1CC(C(=O)N2CCN(c3ccc(C(F)(F)F)cc3)CC2)C1)Nc1cn[nH]c(=O)c1C(F)(F)F
[1]
  inhibition: 32%

## C[C@@H](CN1CC(C(=O)N2CCN(c3ncc(Br)cn3)CC2)C1)Nc1cn[nH]c(=O)c1C(F)(F)F
[1]
  inhibition: 85.5%
[3]
  IC50: 11.1 nM

## O=C(C1CN(CCNc2cn[nH]c(=O)c2C(F)(F)F)C1)N1CCN(c2ncc(C(F)(F)F)cn2)CC1
[1]
  inhibition: 66.8%
[3]
  IC50: 39.3 nM

## Cc1cnc(N2CCN(C(=O)C3CN(C[C@H](C)Nc4cn[nH]c(=O)c4C(F)(F)F)C3)CC2)nc1
[1]
  inhibition: 51.4%
[3]
  IC50: 42.4 nM

## C[C@@H](CN1CC(C(=O)N2CCN(c3ncc(Cl)cn3)CC2)C1)Nc1cn[nH]c(=O)c1C(F)(F)F
[1]
  inhibition: 75.5%

## C[C@@H](COCCC(=O)N1CCN(c2ncc(C(F)(F)F)cn2)CC1)Nc1cn[nH]c(=O)c1C(F)(F)F [ATAMPARIB]
[4]
  t1/2: 9 min
[5]
  t1/2: 54 min
[6]
  Tmax: 4.8 min
[7]
  Tmax: 13.2 min
[8]
  C0 at 24 h: 1230 ng/mL
[9]
  AUC: 256 ng·h/mL
[10]
  AUC: 656 ng·h/mL
[11]
  Vd: 0.872 L/kg
[12]
  Vz: 19.694 L/kg
[13]
  clearance: 67 mL/min/kg
[14]
  CL/F: 259 mL/min/kg
[15]
  MRT inf: 12 min
[16]
  MRT inf: 54 min
[17]
  bioavailability: 25.7%
[18]
  IC50 at 6 days: > 50000 nM
CT26 [19]
  inhibition in vivo at 100 mg/kg: 30%
[20]
  Activity: Non-Toxic
[21]
  Activity: Non-Toxic
[22]
  Activity: Non-Toxic
[23]
  Activity: Non-Toxic
CT26 [24]
  Activity: 48.2%
CT26 [25]
  Activity: 19.1%

## C[C@@H](CN1CC(C(=O)N2CCN(c3cccc4c3oc3ccccc34)CC2)C1)Nc1cn[nH]c(=O)c1C(F)(F)F
[1]
  inhibition: 35%

## C[C@@H](CN1CC(C(=O)N2CCN(c3ccc(C(F)(F)F)cn3)CC2)C1)Nc1cn[nH]c(=O)c1C(F)(F)F
[1]
  inhibition: 82%
[3]
  IC50: 14.5 nM

## C[C@@H](CN1CC(C(=O)N2CCN(c3ncccn3)CC2)C1)Nc1cn[nH]c(=O)c1C(F)(F)F
[1]
  inhibition: 18%

## C[C@@H](CN1CC(C(=O)N2CCN(c3ncc(F)cn3)CC2)C1)Nc1cn[nH]c(=O)c1C(F)(F)F
[1]
  inhibition: 26%

## C[C@@H](CN1CC(C(=O)N2CCN(c3nccc(C(F)(F)F)n3)CC2)C1)Nc1cn[nH]c(=O)c1C(F)(F)F
[1]
  inhibition: 65%
